Data from PubChem BioAssay AID1259411 (Chemical Carcinogenesis Research Information System (CCRIS), 2018).
Activity calls are given as the source filed them. How the calls were made is not given here.

Tested on: rodent carcinogenicity bioassays, tumor incidence
Experiment: CCRIS carcinogenicity studies
Method in brief: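 NCI-built, expert-reviewed records of carcinogenicity and related test outcomes (mutagenicity, tumor promotion/inhibition) compiled from published and report sources, historical span 1985-2011, not updated.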

Question: Which carcinogen call (Species: MOUSE, Strain/Sex: SWISS-WEBSTER/FEMALE, Route: DERMAL, Dose: 0, 1% IN 0.1 ML DISTILLED WATER 1/WK FOR 19.5 MO (STUDY DURATION: 19.5 MO)) does the source give for `Cc1cc(C)c(S(=O)(=O)O)cc1N=Nc1cc(S(=O)(=O)O)c2ccccc2c1O` here?
Answer: inactive; negative

Question: And the carcinogen call (Species: MOUSE, Strain/Sex: SWISS-WEBSTER/MALE, Route: DERMAL, Dose: 0, 1% IN 0.1 ML DISTILLED WATER 1/WK FOR 19.5 MO (STUDY DURATION: 19.5 MO))?
Answer: inactive; negative

Question: How did the carcinogen call (Species: MOUSE, Strain/Sex: B6C3F1/FEMALE, Route: ORAL, Dose: 0, 0.015, 0.03, 0.08% IN DIET FOR 103 WK (STUDY DURATION: 104 WK), Dose: 0, 0.015, 0.03, 0.08% IN DIET FOR 103 WK (STUDY DURATION: 104 WK), Tumor Site: Type of Lesion: THYROID GLAND: FOLLICULAR ADENOMA, LIVER: ADENOMA, LIVER: HEPATOCELLULAR CARCINOMA, HARDERIAN GLAND: ADENOMA, Tumor Site: Type of Lesion: THYROID GLAND: FOLLICULAR ADENOMA, LIVER: ADENOMA, LIVER: HEPATOCELLULAR CARCINOMA, HARDERIAN GLAND: ADENOMA) turn out when `Nc1ccc(Oc2ccc(N)cc2)cc1` was run?
Answer: active; positive

Question: What about the carcinogen call (Species: MOUSE, Strain/Sex: B6C3F1/FEMALE, Route: ORAL, Dose: 0, 150, 300, 800 PPM IN DIET, Dose: 0, 150, 300, 800 PPM IN DIET, Tumor Site: Type of Lesion: LIVER: HEPATOCELLULAR ADENOMA OR CARCINOMA, THYROID GLAND: FOLLICULAR CELL ADENOMA, HARDERIAN GLAND: ADENOMA, NOS, Tumor Site: Type of Lesion: LIVER: HEPATOCELLULAR ADENOMA OR CARCINOMA, THYROID GLAND: FOLLICULAR CELL ADENOMA, HARDERIAN GLAND: ADENOMA, NOS) of the same molecule?
Answer: active; positive

Question: What about the carcinogen call (Species: MOUSE, Strain/Sex: B6C3F1/MALE, Route: ORAL, Dose: 0, 0.015, 0.03, 0.08% IN DIET FOR 103 WK (STUDY DURATION: 104 WK), Dose: 0, 0.015, 0.03, 0.08% IN DIET FOR 103 WK (STUDY DURATION: 104 WK), Tumor Site: Type of Lesion: THYROID GLAND: FOLLICULAR HYPERPLASIA, HARDERIAN GLAND: ADENOMA) of the same molecule?
Answer: active; positive

Question: And the carcinogen call (Species: MOUSE, Strain/Sex: B6C3F1/MALE, Route: ORAL, Dose: 0, 150, 300, 800 PPM IN DIET, Dose: 0, 150, 300, 800 PPM IN DIET, Tumor Site: Type of Lesion: LIVER: HEPATOCELLULAR ADENOMA OR CARCINOMA, HARDERIAN GLAND: ADENOMA, NOS)?
Answer: active; positive

Question: And the carcinogen call (Species: RAT, Route: SUBCUTANEOUS, Tumor Site: Type of Lesion: LIVER)?
Answer: active; positive

Question: And the carcinogen call (Species: RAT, Strain/Sex: F344/FEMALE, Route: ORAL, Dose: 0, 0.02, 0.04, 0.05% IN DIET FOR 103 WK (STUDY DURATION: 104 WK), Dose: 0, 0.02, 0.04, 0.05% IN DIET FOR 103 WK (STUDY DURATION: 104 WK), Tumor Site: Type of Lesion: THYROID GLAND: FOLLICULAR CARCINOMA, THYROID GLAND: FOLLICULAR ADENOMA, LIVER: NEOPLASTIC NODULE, LIVER: HEPATOCELLULAR, Tumor Site: Type of Lesion: THYROID GLAND: FOLLICULAR CARCINOMA, THYROID GLAND: FOLLICULAR ADENOMA, LIVER: NEOPLASTIC NODULE, LIVER: HEPATOCELLULAR)?
Answer: active; positive

Question: What about the carcinogen call (Species: RAT, Strain/Sex: F344/FEMALE, Route: ORAL, Dose: 0, 200, 400, 500 PPM IN DIET, Dose: 0, 200, 400, 500 PPM IN DIET, Tumor Site: Type of Lesion: LIVER: HEPATOCELLULAR CARCINOMA OR NEOPLASTIC NODULE, THYROID GLAND: FOLLICULAR CELL ADENOMA OR CARCINOMA) of the same molecule?
Answer: active; positive

Question: What about the carcinogen call (Species: RAT, Strain/Sex: F344/MALE, Route: ORAL, Dose: 0, 0.02, 0.04, 0.05% IN DIET FOR 103 WK (STUDY DURATION: 104 WK), Dose: 0, 0.02, 0.04, 0.05% IN DIET FOR 103 WK (STUDY DURATION: 104 WK), Tumor Site: Type of Lesion: THYROID GLAND: FOLLICULAR CARCINOMA, THYROID GLAND: FOLLICULAR ADENOMA, LIVER: NEOPLASTIC NODULE, LIVER: HEPATOCELLULAR, Tumor Site: Type of Lesion: THYROID GLAND: FOLLICULAR CARCINOMA, THYROID GLAND: FOLLICULAR ADENOMA, LIVER: NEOPLASTIC NODULE, LIVER: HEPATOCELLULAR) of the same molecule?
Answer: active; positive

Question: And the carcinogen call (Species: RAT, Strain/Sex: F344/MALE, Route: ORAL, Dose: 0, 200, 400, 500 PPM IN DIET, Dose: 0, 200, 400, 500 PPM IN DIET, Tumor Site: Type of Lesion: LIVER: HEPATOCELLULAR CARCINOMA OR NEOPLASTIC NODULE, THYROID GLAND: FOLLICULAR CELL ADENOMA OR CARCINOMA)?
Answer: active; positive

Question: Which carcinogen call (Species: MOUSE, Strain/Sex: BALB/C/MALE, Route: ORAL, Dose: 0, 1000, 2000 PPM IN DRINKING WATER FOR 2 WK (STUDY DURATION: 52 WK), Dose: 0, 1000, 2000 PPM IN DRINKING WATER FOR 2 WK (STUDY DURATION: 52 WK), Tumor Site: Type of Lesion: LUNG: TUMOR) does the source give for `CCN(N=O)C(C)=O` here?
Answer: active; positive

Question: And the carcinogen call (Species: RAT, Strain/Sex: WISTAR/MALE, Route: ORAL, Dose: 0, 1000, 2000 PPM IN DRINKING WATER FOR 2 WK (STUDY DURATION: 52 WK), Dose: 0, 1000, 2000 PPM IN DRINKING WATER FOR 2 WK (STUDY DURATION: 52 WK))?
Answer: inactive; negative

Question: `CCCCCCCCCCCCCC(=O)O[C@@H]1[C@@H](C)[C@@]2(O)[C@@H](C=C(CO)C[C@]3(O)C(=O)C(C)=C[C@@H]23)[C@@H]2C(C)(C)[C@]12OC(C)=O` was tested. Which carcinogen call (Species: MOUSE, Strain/Sex: BALB/MALE, FEMALE, Route: DERMAL, Dose: 0, 18 NMOL IN ACETONE 1/WK FOR 17 MO (STUDY DURATION: 24 MO), Tumor Site: Type of Lesion: SKIN: SQUAMOUS CELL PAPILLOMA) did it give?
Answer: active; positive

Question: And the carcinogen call (Species: MOUSE, Strain/Sex: HR-HR/MALE, FEMALE, Route: DERMAL, Dose: 0, 18 NMOL IN ACETONE 1/WK FOR 18 MO (STUDY DURATION: 24 MO))?
Answer: inactive; negative

Question: And the carcinogen call (Species: MOUSE, Strain/Sex: HR/HR/MALE, FEMALE, Route: DERMAL, Dose: 0, 20, 40, 100, 1000, 1200, 1394 NMOL TOTAL DOSE WITH RESPECTIVE ADMINISTRATIONS OF 20 NMOL ONCE, 2 NMOL TWICE, 20 NMOL, Dose: 0, 20, 40, 100, 1000, 1200, 1394 NMOL TOTAL DOSE WITH RESPECTIVE ADMINISTRATIONS OF 20 NMOL ONCE, 2 NMOL TWICE, 20 NMOL, Tumor Site: Type of Lesion: SKIN: TUMOR)?
Answer: active; positive

Question: What does the source list for `Nc1cccc(N)c1`?
Answer: carcinogen call (Species: MOUSE, Strain/Sex: B6C3F1/FEMALE, Route: ORAL, Dose: 0, 0.02, 0.04% IN DRINKING WATER FOR 78 WK, TOTAL INTAKE 13.0, 22.9 G/KG (STUDY DURATION: 85 WK), Dose: 0, 0.02, 0.04% IN DRINKING WATER FOR 78 WK, TOTAL INTAKE 13.0, 22.9 G/KG (STUDY DURATION: 85 WK)): inactive; negative; carcinogen call (Species: MOUSE, Strain/Sex: B6C3F1/MALE, Route: ORAL, Dose: 0, 0.02, 0.04% IN THE DRINKING WATER FOR 78 WK, TOTAL INTAKE 10.9, 21.0 G/KG BODY WEIGHT (STUDY DURATION: 85 WK), Dose: 0, 0.02, 0.04% IN THE DRINKING WATER FOR 78 WK, TOTAL INTAKE 10.9, 21.0 G/KG BODY WEIGHT (STUDY DURATION: 85 WK)): inactive; negative

Question: How did the carcinogen call (Species: RAT, Strain/Sex: WISTAR/MALE,FEMALE, Route: INTRAPERITONEAL, Dose: 5 MG/KG 1-2 TIMES PER WK FOR 6 MO, Tumor Site: Type of Lesion: KIDNEY: PAPILLARY EPITHELIAL TUMOR, CLEAR CELL TUMOR, TUBULAR ADENOMA, PANCREAS: ADENOCARCINOMA) turn out when `[N-]=[N+]=CC(=O)OC[C@H](N)C(=O)O` was run?
Answer: active; positive

Question: `O=Nc1ccc(Nc2ccccc2)cc1` was tested. Which carcinogen call (Species: MOUSE, Strain/Sex: B6C3F1/FEMALE, Route: ORAL, Dose: 0, 4254, 9000 PPM IN DIET, TWA, Dose: 0, 4254, 9000 PPM IN DIET, TWA) did it give?
Answer: inactive; negative

Question: What about the carcinogen call (Species: MOUSE, Strain/Sex: B6C3F1/MALE, Route: ORAL, Dose: 0, 4254, 9000 PPM IN DIET, TWA, Dose: 0, 4254, 9000 PPM IN DIET, TWA, Tumor Site: Type of Lesion: LIVER: HEPATOCELLULAR ADENOMA OR CARCINOMA) of the same molecule?
Answer: active; positive

Question: What about the carcinogen call (Species: RAT, Strain/Sex: F344/FEMALE, Route: ORAL, Dose: 0, 2500, 5000 PPM IN DIET, Dose: 0, 2500, 5000 PPM IN DIET) of the same molecule?
Answer: inactive; negative

Question: And the carcinogen call (Species: RAT, Strain/Sex: F344/MALE, Route: ORAL, Dose: 0, 2500, 5000 PPM IN DIET, Dose: 0, 2500, 5000 PPM IN DIET, Tumor Site: Type of Lesion: LIVER: HEPATOCELLULAR CARCINOMA OR NEOPLASTIC NODULE)?
Answer: active; positive
